The values below come from ChEMBL document CHEMBL1125160, “Dihydropyrimidine calcium channel blockers: 2-heterosubstituted 4-aryl-1,4-dihydro-6-methyl-5-pyrimidinecarboxylic acid esters as potent mimics of dihydropyridines” (J Med Chem, 1990).

This assay is filed under the species Oryctolagus cuniculus. Put plainly: Vasorelaxant potency in isolated potassium (K(+)-depolarized rabbit thoracic aorta. The format is functional.

Usually IC50 stands for the concentration that gives 50% inhibition. The low end stands for greater potency, the high end for weaker potency.

`CSC1=NC(c2cccc([N+](=O)[O-])c2)C(C(=O)OC(C)C)=C(C)N1` (stereo not given) registered a half-inhibitory concentration (IC50) of 7 nM. In other words, the single-digit nanomolar range.

With `COC(=O)C1=C(C)N=C(SC)NC1c1cccc([N+](=O)[O-])c1` (stereo not given), the concentration for half-maximal inhibition (IC50) was 280 nM.

For `CCOC(=O)C1=C(C)NC(SC)=NC1c1ccccc1[N+](=O)[O-]` (stereo not given), half-maximal inhibition (IC50) was put at 300 nM. The IC50 values of the last two compounds are within 1.5-fold of each other. `CC1=C(C(=O)OC(C)C)C(c2cccc([N+](=O)[O-])c2)N=C(SCCN(C)C)N1` (stereo not given): the IC50 was 1200 nM. In the case of `CCOC(=O)C1=C(C)NC(N(C)C)=NC1c1cccc([N+](=O)[O-])c1` (stereo not given), the IC50 was determined as 6100 nM. Turning to `C=CCSC1=NC(c2cccc([N+](=O)[O-])c2)C(C(=O)OCC)=C(C)N1` (stereo not given), inhibition was half-maximal at 300 nM (IC50). Then `CCOC(=O)C1=C(C)NC(OCC)=C(C(=O)OCC)C1c1cccc([N+](=O)[O-])c1` (stereo not given), with 26 nM. Under `CCC(C)OC(=O)C1=C(C)NC(SC)=NC1c1cccc([N+](=O)[O-])c1` (stereo not given) stands 9 nM. Then `CCOC(=O)C1=C(C)NC(SCC)=C(C(=O)OCC)C1c1cccc([N+](=O)[O-])c1` (stereo not given), with 4 nM. For the compound `CCOC(=O)C1=C(C)NC(SC)=NC1c1cccc(Cl)c1Cl` (stereo not given), the 50% inhibitory concentration (IC50) is 16 nM. Regarding `CSC1=NC(c2cccc([N+](=O)[O-])c2)C(C(=O)OCCN(C)Cc2ccccc2)=C(C)N1` (stereo not given), the 50% inhibitory concentration (IC50) turned out to be 30 nM. This IC50 lies about 1.9-fold higher than the previous one. Then `CCOC(=O)C1=C(C)NC(SC)=NC1c1ccccc1C(F)(F)F` (stereo not given), with 36 nM. Turning to `CSC1=NC(c2cccc(Cl)c2Cl)C(C(=O)OC(C)C)=C(C)N1` (stereo not given), 6 nM corresponded to half-maximal inhibition (IC50). For the compound `CSC1=NC(c2ccccc2C(F)(F)F)C(C(=O)OCCN(C)Cc2ccccc2)=C(C)N1` (stereo not given), the IC50 was more than 100000 nM. `CSC1=NC(c2ccccc2[N+](=O)[O-])C(C(=O)OCCN(C)Cc2ccccc2)=C(C)N1` (stereo not given) yielded an IC50 of 1900 nM.

In turn, `CCOC(=O)C1=C(C)NC(SCCN(C)Cc2ccccc2)=NC1c1cccc([N+](=O)[O-])c1` (stereo not given) gave a 50% inhibitory concentration (IC50) of 170 nM. This IC50 is about 11-fold lower than that of the compound before. `CCOC(=O)C1=C(C)NC(SC)=NC1c1cccc([N+](=O)[O-])c1` (stereo not given) yielded an IC50 of 130 nM. Consider `CCCCCSC1=NC(c2cccc([N+](=O)[O-])c2)C(C(=O)OCC)=C(C)N1` (stereo not given), for which the concentration for half-maximal inhibition (IC50) came to 180 nM.

For the compound `CCOC(=O)C1=C(C)NC(SCc2ccccc2)=NC1c1cccc([N+](=O)[O-])c1` (stereo not given), the IC50 stood at 190 nM.

`CCOC(=O)C1=C(C)N=C(OC)NC1c1cccc([N+](=O)[O-])c1` (stereo not given) displayed an IC50 of 710 nM.
